Source: paper PMC9519446, “Discovery of an Orally Active Benzoxaborole Prodrug Effective in the Treatment of Chagas Disease in Non-human Primates” (Nature microbiology, 2022)
Several values for one entry are separate records, joined by “and”; a condition that tells them apart may be missing. Identical values can stand only once. Entries after “also recorded” stand apart in the source; their conditions may differ. Marks after values point to notes of the source that are not given here.

Columns and labels:
[1] = test system: T. cruzi (naturally acquired infection); assay: NHP treatment study: hemoculture; assay type: in vivo, rhesus macaques (Macaca mulatta); settings: 30 mg/kg/day oral 60 days; all time points after end of treatment
Procedure: A total of 22 rhesus macaques that had been confirmed to be serologically- and PCR-positive for T. cruzi were utilized in these studies. Using 19 animals in the treatment group provided 85% power of detecting 100% efficacy. […] The remaining three animals on the study were maintained as untreated control animals and received food treats but were not dosed with AN15368.
For hemoculture determinations, peripheral blood from macaques was collected and cultured at 26°C in supplemented liver digest neutralized tryptose medium as described previously. The presence of T. cruzi parasites was assessed every week for 3 months under an inverted microscope. T. cruzi DTU of the macaque isolates was determined as previously described.

[2] = NHP necropsy histology (lesions that could be consistent with Chagas); assay type: in vivo, rhesus macaques (Macaca mulatta); set-up: key to Skel mm, lesion grade / Small Int, lesion grade / Large Int, lesion grade / Heart, lesion grade: 0 (unlikely Chagas-related pathology); 5 (likely Chagas-related pathology); settings: individual treated macaques T1-T9 at necropsy
Procedure: Under light-anesthesia/sedation, peripheral blood samples were collected from each animal prior to treatment and at 7 time points following. Blood analysis (CBC and serum chemistry assays) and physical exams to evaluate the health of the study animals were performed on each animal prior to the beginning of the study and also at three time points during the treatment protocol (see Supplementary data).

[3] = Pharmacokinetics in rats (IV and PO); set-up: species or system rat; settings: in vivo
Procedure: Rat IV (2 mg/kg) Rat PO (10 mg/kg)
Cl (mL/h/kg) 2258 AUC0-last (hr*µg/mL) 3.34
AUC0-last (hr*µg/mL) 0.883
for AN15368 in rats. Data are presented as mean values +/- SEM; n= 3 animals.

[4] = Plasma protein binding (rat); assay type: in vitro ADME
[5] = test system: T. cruzi of diverse genetic types (DTUs); assay: In vitro susceptibility of T. cruzi strains of diverse genetic types (DTUs); assay type: cell-based; settings: Trypanosoma cruzi
Procedure: C57BL/6J mice were purchased from The Jackson Laboratory (Bar Harbor, ME), and B6.129S7-Ifngtm1Ts/J (IFN-gamma deficient) were bred in-house at the University of Georgia Animal Facility. The SKH-1 “hairless” mice backcrossed to C57BL/6 were a gift from Dr. Lisa DeLouise (University of Rochester). All the animals were maintained in the University of Georgia Animal Facility under specific pathogen–free conditions at 22°C, 50% humidity and in a 12:12 hs light:dark cycle. Male and female mice of 6 to 9 weeks of age were used. All mouse experiments were carried out in strict accordance with the Public Health Service Policy on Humane Care and Use of Laboratory Animals and Association for Assessment and Accreditation of Laboratory Animal Care accreditation guidelines. The protocol was approved by the University of Georgia Institutional Animal Care and Use Committee. […] Parasites genotypes were determined as previously described.
The in vitro anti-T. cruzi amastiogote activity assay was performed and optimized based on the protocol described previously. The change in tdTomato fluorescence intensity was determined as a measurement of growth over 72 hours of culture. For assaying drug effects on extracellular amastigotes, trypomastigotes were collected from infected Vero cell cultures and converted in acidic media as previously described. Amastigotes (50,000/well) were incubated with 2-fold serial dilutions of compounds for 48 hours. The ATP production was used as an indication of growth in this case, and was measured by ATPlite Luminescence ATP Detection Assay System (PerkinElmer). Both fluorescence and luminescence were read using a BioTek Synergy Hybrid Multi-Mode reader equipped with the software Gene5 v 2.0 (BioTek). The dose-response curve was generated by […] analysis with GraphPad Prism v9.4.0 (GraphPad Software).

[6] = test system: metallocarboxypeptidase 2 disrupted T. cruzi intracellular amastigote; assay: Intracellular amastigote assay with metallocarboxypeptidase 2 (TcCLB.504045.60) disrupted T. cruzi; assay type: cell-based, Trypanosoma cruzi; settings: Fig. S1
Source text: activity of AN14353 on intracellular amastigote (b). Representative microphotographs of assays repeated at least three times are shown. Data are presented as mean values +/- SEM; n= 3 […]
(1 picture or pasted object on this page, not shown here)

[7] = test system: Luciferase-expressing T. cruzi (Brazil strain); assay: In vivo killing time assay (footpad bioluminescence); set-up: species or system C57BL/6 mice; settings: for Bioluminiscence signal of the feet of mice infected with Luciferase expresssing T. cruzi: individual feet
Procedure: C57BL/6 mice were infected with 2.5x10^5 Luciferase-expressing T. cruzi (Brazil strain) in the foot pads, and two days later one oral dose of AN14353 (25 mg/kg) was administered. The bioluminescent signal in the feet after i.p. injection of D-luciferin (PerkinElmer; 250mg/kg) was measured in a Lumina II IVIS imager (PerkinElmer).

Cc1c(C(=O)N[C@H](C(=O)OCC2CCOCC2)C(C)C)ccc2c1B(O)OC2 [AN15368]
culture of parasites from blood (in words) [1]: negative | Heart, lesion grade [2]: 1* and 0 and 2* and 3* | Histology Comments [2]: Heart- mutifocal areas of mild epicarditis; also recorded: No overt pathology identified; also recorded: Sk mm- mild focal area of neutrophilic and lymphocytic inflammation Small int- prominent villar tip necrosis/apoptosis, multifocal Lrg Int- focal area of mild lymphohistiocytic inflammation in muscularis; also recorded: Heart- Multifocal areas of mild lymphohistiocytic inflammation/myofiber loss; regional area of mild-moderate myocardial fibrosis; intravascular bacterial or fungal thrombus. Heart lesions are likely related to thromus/infection but Chagas can't be ruled out; also recorded: Sk mm- Multifocal areas of mild lymphohistiocytic inflammation and myofiber loss; Lrg Int- Mild diffsue lymphoplasmactic colitis; focal area of mild lymphohistiocytic inflammation in muscularis; also recorded: Heart - multiple foci of mild lymphoctic inflammation Sk mm-one section has acute myofiber degeneration (ketamine artifact) Small int- prominent villar tip necrosis/apoptosis, multifocal; also recorded: Heart- multifocal areas of mild to moderate myocardial, subepicardial, and perivascular lymphohistiocytic and plasmacytic inflammation; regional area of mild-moderate myocardial fibrosis | Large Int, lesion grade [2]: 0 and 1* | Skel mm, lesion grade [2]: 0 and 1* and 2* | Small Int, lesion grade [2]: 0 | AUC(0-t) ([3]; Rat IV (2 mg/kg)): 883 ng·h/mL | Cmax ([3]; Rat IV (2 mg/kg)): 1700 ± 200 ng/mL | clearance ([3]; Rat IV (2 mg/kg)): 37.6 mL/min/kg | Vd ([3]; Rat IV (2 mg/kg), read-out: Vss): 1.11 L/kg | AUC(0-t) ([3]; Rat PO (10 mg/kg)): 3340 ng·h/mL | Cmax ([3]; Rat PO (10 mg/kg)): 2100 ± 290 ng/mL | bioavailability ([3]; Rat PO (10 mg/kg)): 76.1% | Funbound (rat) [4]: 10%

Cc1c(C(=O)NC(C(=O)OCc2ccc(F)c(F)c2)C(C)C)ccc2c1B(O)OC2 (stereo not drawn) [AN14353]
IC50 ([5]; Strain 20290, DTU TcI): 3 nM | IC90 ([5]; Strain 20290, DTU TcI): 5 nM | IC50 ([5]; Strain 20392, DTU TcIV): 5 nM | IC90 ([5]; Strain 20392, DTU TcIV): 10 nM | IC50 ([5]; Strain ARC0704, DTU TcI): 3 nM | IC90 ([5]; Strain ARC0704, DTU TcI): 7 nM | IC50 ([5]; Strain CL, DTU TcVI): 6 nM | IC90 ([5]; Strain CL, DTU TcVI): 18 nM | IC50 ([5]; Strain Colombiana, DTU TcI): 7 nM | IC90 ([5]; Strain Colombiana, DTU TcI): 10 nM | IC50 ([5]; Strain M5631, DTU TcIII): 1 nM | IC90 ([5]; Strain M5631, DTU TcIII): 3 nM | IC50 ([5]; Strain Montalvania, DTU TcI): 1 nM | IC90 ([5]; Strain Montalvania, DTU TcI): 2 nM | IC50 ([5]; Strain Tul8, DTU TcII): 1 nM | IC90 ([5]; Strain Tul8, DTU TcII): 2 nM | impact of metallocarboxypeptidase 2 disruption on activity [6]: Lack of impact | Bioluminiscence signal of the feet of mice infected with Luciferase expresssing T. cruzi ([7]; dpi 0): 38900 and 50000 and 58900 and 53200 and 27400 and 49600 | Bioluminiscence signal of the feet of mice infected with Luciferase expresssing T. cruzi ([7]; dpi 6): 16800 and 26800 and 41700 and 19800 and 27400 and 55100 | Bioluminiscence signal of the feet of mice infected with Luciferase expresssing T. cruzi ([7]; dpi 12): 53200 and 26000 and 25400 and 27200 and 20400 and 32200 | Bioluminiscence signal of the feet of mice infected with Luciferase expresssing T. cruzi ([7]; dpi 24): 28700 and 38600 and 17100 and 17600 and 12200 and 16200 | Bioluminiscence signal of the feet of mice infected with Luciferase expresssing T. cruzi ([7]; dpi 30): 38600 and 26900 and 29300 and 28500 and 15800 and 33500 | Bioluminiscence signal of the feet of mice infected with Luciferase expresssing T. cruzi ([7]; dpi 48): 13500 and 15700 and 12600 and 12800 and 9070 and 11900 | Bioluminiscence signal of the feet of mice infected with Luciferase expresssing T. cruzi ([7]; dpi 72): 90400 and 76200 and 47100 and 14600 and 38700 and 41000 | in vivo trypanocidal activity (killing time) ([7]; single oral dose 25 mg/kg): rapid in vivo trypanocidal activity
